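1) Cells in 96-well plates. 2) Compound, 48 h, 5 concentrations. 3) Linear interpolation between surrounding doses. 4) Unreached endpoint = highest concentration. Abbreviation: GI50, concentration required for 50% inhibition of growth. TGI is the concentration that stops growth completely.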
Assays:
Experiment in all cases: NCI-60 cell line screen, 48 h
[1] = system: HL-60(TB) leukemia
[2] = system: MDA-MB-231 breast
[3] = system: SN12C renal
[4] = system: RXF 393 renal
[5] = system: SK-MEL-28 melanoma
[6] = system: A498 renal
[7] = system: SK-MEL-5 melanoma
[8] = system: COLO 205 colon
[9] = system: IGROV1 ovarian
[10] = system: A549 NSCLC
[11] = system: PC-3 prostate
[12] = system: SF-268 CNS
[13] = system: LOX IMVI melanoma
[14] = system: RPMI-8226 leukemia
[15] = system: NCI-H522 lung
[16] = system: M14 melanoma
[17] = system: KM12 colon
[18] = system: SK-MEL-2 melanoma
[19] = system: OVCAR-3 ovarian
[20] = system: 786-0 renal
[21] = system: UACC-62 melanoma
[22] = system: NCI-H23 lung
[23] = system: U251 CNS
[24] = system: HOP-92 NSCLC
[25] = system: T-47D breast
[26] = system: SF-295 CNS
[27] = system: SR leukemia
[28] = system: MDA-MB-435
[29] = system: SK-OV-3 ovarian
[30] = system: HOP-62 NSCLC
[31] = system: HCT-15 colon
[32] = system: EKVX NSCLC
[33] = system: OVCAR-5 ovarian
[34] = system: OVCAR-8 ovarian
[35] = system: HT29 colon
[36] = system: HS 578T breast
[37] = system: NCI-H460 lung
[38] = system: BT-549 breast
[39] = system: TK-10 renal
[40] = system: SW-620 colon
[41] = system: SNB-19 CNS
[42] = system: MOLT-4 leukemia
[43] = system: UO-31 renal
[44] = system: K-562 leukemia
[45] = system: DU-145 prostate
[46] = system: CCRF-CEM leukemia
[47] = system: OVCAR-4 ovarian
[48] = system: CAKI-1 renal
[49] = system: ACHN renal
[50] = system: SF-539 CNS
[51] = system: NCI-H226 lung
[52] = system: MALME-3M melanoma
[53] = system: NCI/ADR-RES ovarian
[54] = system: SNB-75 CNS
[55] = system: MCF7 breast
[56] = system: HCC-2998 colon
[57] = system: HCT-116 colon
[58] = system: UACC-257 melanoma
[59] = system: MDA-N

## CC1(C)N=C(N)N=C(N)N1c1ccc(CCCCc2ccccc2)c(Cl)c1
[1]
  TGI: 3.26 µM
[2]
  GI50: 0.444 µM
  TGI: 5.85 µM
[3]
  GI50: 0.0521 µM
  TGI: 7.02 µM
[4]
  GI50: 0.334 µM
  TGI: 7.79 µM
[5]
  GI50: 0.53 µM
  TGI: 13.4 µM
[6]
  GI50: 0.746 µM
  TGI: 14.5 µM
[7]
  GI50: 0.0628 µM
  TGI: 1.32 µM
[8]
  GI50: 0.0281 µM
  TGI: 1.68 µM
[9]
  GI50: < 0.0185 µM
  TGI: 2.34 µM
[10]
  GI50: < 0.01 µM
  TGI: 15 µM
[11]
  GI50: < 0.0172 µM
  TGI: 6.88 µM
[12]
  GI50: 0.0536 µM
  TGI: 13.7 µM
[13]
  GI50: 0.0131 µM
  TGI: 1.52 µM
[14]
  GI50: 0.127 µM
  TGI: 11.6 µM
[15]
  GI50: 0.05 µM
  TGI: 1.83 µM
[16]
  GI50: 0.0598 µM
  TGI: 8.77 µM
[17]
  GI50: 0.059 µM
  TGI: 1.42 µM
[18]
  GI50: 0.0394 µM
  TGI: 12.4 µM
[19]
  GI50: 0.0541 µM
  TGI: 1.76 µM
[20]
  GI50: 0.055 µM
  TGI: 13.1 µM
[21]
  GI50: 0.0505 µM
  TGI: 2.67 µM
[22]
  GI50: 0.0543 µM
  TGI: 10.2 µM
[23]
  GI50: < 0.01 µM
  TGI: 1.83 µM
[24]
  GI50: 0.464 µM
  TGI: 4.48 µM
[25]
  GI50: 0.499 µM
  TGI: 12.8 µM
[26]
  GI50: 0.0457 µM
  TGI: 14.6 µM
[27]
  GI50: 0.0259 µM
  TGI: 5.81 µM
[28]
  GI50: 0.038 µM
  TGI: 5.91 µM
[29]
  GI50: 0.43 µM
  TGI: 11.1 µM
[30]
  GI50: 0.0672 µM
  TGI: 5.46 µM
[31]
  GI50: 0.522 µM
  TGI: 35.5 µM
[32]
  GI50: 0.294 µM
  TGI: 25.1 µM
[33]
  GI50: 0.331 µM
  TGI: 22.4 µM
[34]
  GI50: 0.0606 µM
  TGI: > 39.7 µM
[35]
  GI50: < 0.01 µM
  TGI: 1.55 µM
[36]
  GI50: 4.49 µM
  TGI: 39.4 µM
[37]
  GI50: < 0.0129 µM
  TGI: 4.04 µM
[38]
  GI50: 0.161 µM
  TGI: 5.19 µM
[39]
  GI50: 0.0721 µM
  TGI: 17.5 µM
[40]
  GI50: < 0.01 µM
  TGI: 5.97 µM
[41]
  GI50: 0.0746 µM
  TGI: > 35.9 µM
[42]
  GI50: 0.095 µM
  TGI: 11.3 µM
[43]
  GI50: 4.89 µM
  TGI: 25.6 µM
[44]
  GI50: 0.0256 µM
  TGI: > 51.2 µM
[45]
  GI50: 0.0577 µM
  TGI: 14 µM
[46]
  GI50: 0.0374 µM
  TGI: 14.2 µM
[47]
  GI50: 0.0755 µM
  TGI: 9.66 µM
[48]
  GI50: 0.869 µM
  TGI: 16.8 µM
[49]
  GI50: 0.461 µM
  TGI: 22.1 µM
[50]
  GI50: 0.121 µM
  TGI: 5.14 µM
[51]
  GI50: 0.275 µM
  TGI: 24.4 µM
[52]
  GI50: 0.855 µM
  TGI: 8.93 µM
[53]
  GI50: 6.74 µM
  TGI: > 100 µM
[54]
  GI50: 0.124 µM
  TGI: 5.87 µM
[55]
  GI50: 0.0256 µM
  TGI: 2.12 µM
[56]
  GI50: 0.131 µM
  TGI: 3.52 µM
[57]
  GI50: < 0.01 µM
  TGI: 1.61 µM
[58]
  GI50: 0.247 µM
  TGI: 5.26 µM

## COc1nc2ccc(COc3ccc(C(=O)NC(CCC(=O)O)C(=O)O)cc3)cc2nc1OC (configuration not stated)
[1]
  TGI: > 10 µM
[2]
  TGI: > 10 µM
[3]
  TGI: > 10 µM
[4]
  TGI: > 10 µM
[5]
  TGI: > 10 µM
[7]
  TGI: > 10 µM
[8]
  TGI: > 10 µM
[9]
  TGI: > 10 µM
[10]
  TGI: > 10 µM
[11]
  TGI: > 10 µM
[12]
  TGI: > 10 µM
[13]
  TGI: > 10 µM
[14]
  TGI: > 10 µM
[15]
  TGI: > 10 µM
[16]
  TGI: > 10 µM
[17]
  TGI: > 10 µM
[59]
  TGI: > 10 µM
[18]
  TGI: > 10 µM
[19]
  TGI: > 10 µM
[21]
  TGI: > 10 µM
[22]
  TGI: > 10 µM
[23]
  TGI: > 10 µM
[24]
  TGI: > 10 µM
[25]
  TGI: > 10 µM
[26]
  TGI: > 10 µM
[27]
  TGI: > 10 µM
[28]
  TGI: > 10 µM
[29]
  TGI: > 10 µM
[30]
  TGI: > 10 µM
[31]
  TGI: > 10 µM
[32]
  TGI: > 10 µM
[33]
  TGI: > 10 µM
[35]
  TGI: > 10 µM
[36]
  TGI: > 10 µM
[37]
  TGI: > 10 µM
[39]
  TGI: > 10 µM
[40]
  TGI: > 10 µM
[41]
  TGI: > 10 µM
[42]
  TGI: > 10 µM
[43]
  TGI: > 10 µM
[44]
  TGI: > 10 µM
[45]
  TGI: > 10 µM
[46]
  TGI: > 10 µM
[47]
  TGI: > 10 µM
[48]
  TGI: > 10 µM
[49]
  TGI: > 10 µM
[50]
  TGI: > 10 µM
[51]
  TGI: > 10 µM
[54]
  TGI: > 10 µM
[55]
  TGI: > 10 µM
[56]
  TGI: > 10 µM
[58]
  TGI: > 10 µM

Reference: PubChem BioAssay (NCI)
